Holding throughout (assay): NCI tumour cell line growth inhibition, 48 h
Experiment [1] has as its system A549.
The test system of experiment [2] is ACHN.
In experiment [3] the test system is HCT-116.
Experiment [4] relates to HL-60.
For experiment [5], the system named is HOP-62.
Experiment [6] deals with Hs-578T.
Experiment [7] deals with IGROV-1.
For experiment [8], the system named is KM12.
Experiment [9] relates to M14.
The test system of experiment [10] is NCI-H460.
The subject of experiment [11] is OVCAR-3.
The subject of experiment [12] is OVCAR-8.
Experiment [13] concerns SF-295.
The test system of experiment [14] is SF-539.
Experiment [15] deals with SNB-19.
Experiment [16] has as its system TK-10.
Experiment [17] deals with U-251.
The test system of experiment [18] is MDA-N.
Experiment [19] relates to Malme-3M.
Experiment [20] has as its system NCI/ADR-RES.

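A five-concentration, 48-hour dose response in 96-well plates underlies each endpoint, interpolated linearly between surrounding concentrations. GI50 is the concentration that inhibits growth by half.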 Activity calls are given as the source filed them. Cut-off read from the data, not from the text of the source: active = GI50 up to about 1.1 µM and inactive = higher.

Turning to `O=c1oc(-c2ccccc2)c(-c2ccccc2)n1-c1ccc(Br)cc1`, the GI50 was 54.5 µM (inactive) in experiment [1]; > 100 µM (inactive) in experiment [2]; 49.7 µM (inactive) in experiment [3]; 39.5 µM (inactive) in [4]; 33.2 µM (inactive) in experiment [5]; 32.3 µM (inactive) in experiment [6]. The GI50 in experiment [7] was 29.6 µM (inactive); in [8], 37.4 µM (inactive); in experiment [9], > 100 µM (inactive); in experiment [10], 62.1 µM (inactive); in [11], 47.5 µM (inactive); in experiment [12], 29.2 µM (inactive). For the same compound, the GI50 is 28.1 µM (inactive) in experiment [13]; 20.6 µM (inactive) in [14]; 31.8 µM (inactive) in experiment [15]; 31.8 µM (inactive) in experiment [16]; 24.2 µM (inactive) in experiment [17].

For the compound `CC(=O)C1=CN=C2C(=O)N(c3ccccc3)N(C)C12C` (stereo not drawn), the GI50 in [1] is > 100 µM (inactive); in experiment [2], > 100 µM (inactive); in experiment [3], > 100 µM (inactive); in [4], > 100 µM (inactive); in [7], > 100 µM (inactive); in experiment [8] it was 3.08 µM (inactive). Besides, the GI50 was > 100 µM (inactive) in experiment [9]; > 100 µM (inactive) in experiment [18]; > 100 µM (inactive) in [19]; 55.1 µM (inactive) in experiment [20]; > 100 µM (inactive) in experiment [11]; > 100 µM (inactive) in experiment [12]. For the same compound, the GI50 in experiment [13] was > 100 µM (inactive); in [14] it was > 100 µM (inactive); in experiment [15], > 100 µM (inactive); in experiment [16] it was 49.9 µM (inactive); in [17] it was > 100 µM (inactive).

As for `COc1cnc2oc3ccc(O)cc3c2c1-c1ccccc1`, the GI50 in experiment [1] is > 100 µM (inactive); in [2], > 100 µM (inactive); in experiment [3] it was 15.2 µM (inactive); in [4], > 100 µM (inactive); in experiment [5], 24 µM (inactive); in [6] it was > 100 µM (inactive). Besides, the GI50 in experiment [8] is 83.2 µM (inactive); in experiment [9], 18.7 µM (inactive); in [19], 40 µM (inactive); in [10], > 100 µM (inactive); in experiment [20], 30.3 µM (inactive); in experiment [11] it was 4.27 µM (inactive). The GI50 in experiment [12] is 55.3 µM (inactive); in experiment [13], 83 µM (inactive); in experiment [14], > 100 µM (inactive); in [16] it was > 100 µM (inactive); in [17], > 100 µM (inactive).

Take `Cc1ccccc1[P+](C)(c1ccccc1C)c1ccccc1C`: the GI50 is 13.1 µM (inactive) in experiment [1]; 15.8 µM (inactive) in experiment [2]; 6.79 µM (inactive) in experiment [3]; 23.9 µM (inactive) in experiment [5]; 17.8 µM (inactive) in experiment [6]; 14.9 µM (inactive) in [7]. In addition, the GI50 in experiment [9] was 7.46 µM (inactive); in experiment [19] it was 8.18 µM (inactive); in [10], 20 µM (inactive); in [20], 25.5 µM (inactive); in [11] it was 7.94 µM (inactive); in experiment [12], 15 µM (inactive). Also, the GI50 in experiment [14] was 16.5 µM (inactive); in experiment [15], 8.69 µM (inactive); in experiment [16], 8.26 µM (inactive); in experiment [17] it was 6.3 µM (inactive).

As for `CC(C)(C)OC(=O)Nc1cc(-c2ccccc2)co1`, the GI50 is 78.2 µM (inactive) in experiment [1]; > 100 µM (inactive) in experiment [2]; 83.9 µM (inactive) in experiment [3]; > 100 µM (inactive) in experiment [4]; > 100 µM (inactive) in [5]; 87.5 µM (inactive) in [7]. In addition, the GI50 in experiment [8] is > 100 µM (inactive); in [9], > 100 µM (inactive); in [18], 86.3 µM (inactive); in [20], > 100 µM (inactive); in experiment [11] it was 94.2 µM (inactive); in experiment [12], > 100 µM (inactive). Further, the GI50 was > 100 µM (inactive) in experiment [13]; > 100 µM (inactive) in experiment [14]; > 100 µM (inactive) in experiment [15]; > 100 µM (inactive) in experiment [16]; 54.6 µM (inactive) in experiment [17].

For the compound `O=c1/c(=C/c2ccc(Cl)cc2Cl)sc2nc3ccccc3n12`, the GI50 in [1] was > 100 µM (inactive); in experiment [2], > 100 µM (inactive); in [3] it was 71.9 µM (inactive); in experiment [4] it was > 100 µM (inactive); in experiment [5], > 100 µM (inactive); in [7] it was > 100 µM (inactive). In addition, the GI50 in experiment [8], in experiment [9], in experiment [19], in experiment [10], in experiment [11] and in experiment [12] was > 100 µM (inactive) each time. Further, the GI50 in [13], in experiment [14], in experiment [15], in [16] and in [17] was > 100 µM (inactive) in each case.

Take `COc1ccc(C2(CN(C)C)COc3cc(OC)c(OC)cc3C2=O)cc1OC` (stereo not drawn): the GI50 in experiment [1] is 69.8 µM (inactive); in [2], 89.5 µM (inactive); in [3] it was 16.3 µM (inactive); in experiment [4] it was 16.6 µM (inactive); in experiment [5], > 100 µM (inactive); in [7], > 100 µM (inactive). Further, the GI50 in experiment [8] is 61.5 µM (inactive); in [9] it was 89.3 µM (inactive); in experiment [19] it was > 100 µM (inactive); in experiment [10], 33.9 µM (inactive); in experiment [11], 86.7 µM (inactive); in experiment [12] it was 53.1 µM (inactive). Besides, the GI50 is 92.9 µM (inactive) in [13]; 39.9 µM (inactive) in experiment [14]; > 100 µM (inactive) in experiment [15]; 63.5 µM (inactive) in experiment [16]; 45.9 µM (inactive) in [17].

Take `CC(=O)c1ccc(-c2oc(-c3ccccc3)cc2-c2ccc3c(c2)OCO3)s1`: the GI50 in experiment [2] is > 100 µM (inactive); in experiment [3] it was > 100 µM (inactive); in [4] it was 1.02 µM (active); in experiment [5], > 100 µM (inactive); in experiment [6] it was > 100 µM (inactive); in experiment [7], > 100 µM (inactive). Also, the GI50 in experiment [9] is 65.3 µM (inactive); in [10], 68.5 µM (inactive); in experiment [20] it was 49.7 µM (inactive); in [11], > 100 µM (inactive); in experiment [12] it was > 100 µM (inactive); in [13], > 100 µM (inactive). Besides, the GI50 in experiment [14], in experiment [16] and in experiment [17] was > 100 µM (inactive) each time.

For `COC(=O)N/N=C(/CCN1CCCC1)CC(c1ccccc1)c1c(O)c2ccccc2oc1=O` (stereo not drawn), the GI50 in experiment [1], in experiment [2], in experiment [3], in [4], in [5] and in [7] was > 100 µM (inactive) throughout. Also, the GI50 in experiment [8], in experiment [9], in experiment [19], in experiment [10], in [11] and in experiment [12] was > 100 µM (inactive) each time. Also, the GI50 in experiment [13], in [14], in [15], in [16] and in [17] was > 100 µM (inactive) throughout.

In the case of `O=C1NCN(c2ccccc2)C12CCN(CCc1ccc3[nH]c(=S)[nH]c3c1)CC2`, the GI50 in [1] was 66.5 µM (inactive); in experiment [2], > 100 µM (inactive); in experiment [3], 43 µM (inactive); in experiment [4] it was 29.1 µM (inactive); in experiment [5], > 100 µM (inactive); in experiment [6], > 100 µM (inactive). In addition, the GI50 in experiment [7] is 37.6 µM (inactive); in experiment [8] it was 27.9 µM (inactive); in [9], 19.6 µM (inactive); in [19], 15.6 µM (inactive); in experiment [10], 31.8 µM (inactive); in [20], > 100 µM (inactive). The GI50 is 48 µM (inactive) in experiment [11]; 51.9 µM (inactive) in experiment [12]; 51.3 µM (inactive) in [13]; 22.1 µM (inactive) in [14]; 43.5 µM (inactive) in experiment [15]; 24.7 µM (inactive) in [16]. Besides, the GI50 in experiment [17] is 29.4 µM (inactive).

For `CC(C)/C=C1\CCC(CN2CCCC2)C1=O` (stereo not drawn), the GI50 is 13.8 µM (inactive) in experiment [1]; 18.2 µM (inactive) in experiment [2]; 8.97 µM (inactive) in experiment [3]; 3.51 µM (inactive) in [4]; > 87.5 µM (inactive) in [5]; 25.7 µM (inactive) in experiment [7]. In addition, the GI50 in [8] is 10 µM (inactive); in [9] it was 10.9 µM (inactive); in [19] it was 6.28 µM (inactive); in experiment [10], 39 µM (inactive); in experiment [11] it was 17.4 µM (inactive); in experiment [12] it was 10.4 µM (inactive). In addition, the GI50 in experiment [13] was 42.6 µM (inactive); in experiment [14], 18.7 µM (inactive); in experiment [15], > 41.6 µM (inactive); in [16], 10.7 µM (inactive); in experiment [17], 14.6 µM (inactive).

`OCCc1ccsc1-c1sc(-c2cc(CCO)c(-c3sccc3CCO)s2)cc1CCO`: the GI50 in experiment [1] was 29 µM (inactive); in experiment [2], 15.8 µM (inactive); in [3] it was 16.6 µM (inactive); in experiment [5] it was 14.5 µM (inactive); in experiment [7] it was 15.7 µM (inactive); in experiment [8], 3.38 µM (inactive). Also, the GI50 was 11.3 µM (inactive) in experiment [9]; 21.6 µM (inactive) in experiment [18]; 11.1 µM (inactive) in experiment [19]; 6.12 µM (inactive) in experiment [10]; 20.2 µM (inactive) in experiment [20]; 18.1 µM (inactive) in [11]. The GI50 in [12] was 15.7 µM (inactive); in experiment [13], 15.1 µM (inactive); in [15], 13.6 µM (inactive); in experiment [16], 19.5 µM (inactive); in experiment [17], 12.7 µM (inactive).
